Values quoted from earlier work in patent publication US7417156B2, “Orally active, antimalarial, anticancer, artemisinin-derived trioxane dimers” (Johns Hopkins University, priority 2002, dated 2008).

Settings: in vivo; cited from earlier work

C[C@H]1[C@@H](O)O[C@@H]2O[C@@]3(C)CC[C@H]4[C@H](C)CC[C@@H]1[C@@]24OO3 [Compound 31, dihydroartemisinin]
half-life in plasma: less than two hours
